Laboratory results taken from the supplement of paper PMC10307832.

How the values were obtained:
Experiment in all cases: relative viability (nuclei count vs DMSO), 5 days (fraction); higher = more cells survive
[1] = compound: CC1=CC=C(C=C1)C(=O)CN2C3=C(CCCC3)SC2=N [Pifithrin_alpha] + Nc1ncn([C@H]2C[C@H](O)[C@@H](CO)O2)c(=O)n1 [Decitabine] (partner 2 µM)
Outline: (§1)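 Lung cancer cell lines, seeded in 1536-well plates, were treated the following day by pin tool with a single drug or with five library-drug doses (not always all listed) in √10 steps on top of a fixed anchor-drug dose. Cells were fixed and nuclei stained in one step after 5 days, and nuclei were counted. Relative viability is the nuclei count for treated wells divided by that for vehicle wells, reported as medians of duplicate plates.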

[2] = compound: CC1=CC=C(C=C1)C(=O)CN2C3=C(CCCC3)SC2=N [Pifithrin_alpha] + COc1cccc2cc(-c3nc([C@H]4CC[C@H](C(=O)O)CC4)n4ncnc(N)c34)[nH]c12 [OSI-027] (partner 0.5 µM)
Outline: as §1

[3] = compound: CNC(=O)c1ccccc1Sc1ccc2c(/C=C/c3ccccn3)n[nH]c2c1 [Axitinib] + Nc1ncn([C@H]2C[C@H](O)[C@@H](CO)O2)c(=O)n1 [Decitabine] (partner 2 µM)
Outline: as §1

[4] = compound: Nc1nc(Nc2ccc3c(c2)CC[C@@H](N2CCCC2)CC3)nn1-c1cc2c(nn1)-c1ccccc1CCC2 [Bemcentinib] + COc1cc2c(Oc3ccc(NC(=O)C4(C(=O)Nc5ccc(F)cc5)CC4)cc3F)ccnc2cc1OCCCN1CCOCC1 [Foretinib] (partner 0.25 µM)
Outline: as §1

Cell Line	relative viability ([1]; first compound 1 µM)	relative viability ([1]; first compound 3.162 µM)	relative viability ([1]; first compound 10 µM)	relative viability ([1]; first compound 31.62 µM)	relative viability ([1]; first compound 100 µM)	relative viability ([2]; first compound 1 µM)	relative viability ([2]; first compound 3.162 µM)	relative viability ([2]; first compound 10 µM)	relative viability ([2]; first compound 31.62 µM)	relative viability ([2]; first compound 100 µM)	relative viability ([3]; first compound 0.005 µM)	relative viability ([3]; first compound 0.01581 µM)	relative viability ([3]; first compound 0.05 µM)	relative viability ([3]; first compound 0.1581 µM)	relative viability ([3]; first compound 0.5 µM)	relative viability ([4]; first compound 0.04 µM)	relative viability ([4]; first compound 0.1265 µM)	relative viability ([4]; first compound 0.4 µM)	relative viability ([4]; first compound 1.265 µM)	relative viability ([4]; first compound 4 µM)
NCI-H358	0.206	0.205	0.19	0.217	0.16	0.761	0.797	0.658	0.629	0.528	0.226	0.222	0.221	0.214	0.198	0.723	0.827	0.73	0.749	0.853
NCI-H441	0.233	0.294	0.212		0.301	0.524	0.662	0.614		0.542	0.233	0.217	0.253	0.21	0.27	1.16	1.05	0.892	0.917	0.875
NCI-H460	0.531	0.496	0.392	0.218	0.215	0.613	0.541	0.397	0.274	0.48	0.585	0.464	0.528	0.535	0.585	1.01	1.22	1.1	1.07	1
NCI-H520	0.595	0.481	0.578	0.397	0.507	0.297	0.244	0.259	0.288	0.25	0.527	0.422	0.509	0.449	0.481	0.957	0.748	0.911	0.685	0.791
NCI-H596	0.89	1.15	1.12	1.07	1.09	0.809	0.65	0.557	0.588	0.621	1.15	0.976	1.32	0.935	1.07	0.84	0.848	0.974	0.799	0.94
NCI-H647	0.442	0.403	0.376	0.339	0.406	0.589	0.757	0.556	0.517	0.57	0.262	0.378	0.457	0.348	0.495	1.33	1.22	1.24	1.49	1.2
NCI-H661	0.536	0.591	0.587	0.542	0.469	0.691	0.707	0.678	0.514	0.579	0.594	0.503	0.588	0.549	0.597	0.969	1.04	1.01	0.981	0.986
NCI-H727	0.328	0.782	0.835	0.731	0.749	0.394	0.577	0.579		0.404	0.962	0.842	0.835	1.01	0.837	0.881	1.09	0.935	0.88	1.03
NCI-H838	0.427	0.473	0.441	0.387	0.389	0.381	0.35	0.349	0.263	0.258	0.503	0.492	0.433	0.487	0.475	1.05	1.15	1.21	1.11	1.18
NCI-H1355	0.308	0.349	0.339	0.29	0.304	0.336	0.329	0.323	0.307	0.309	0.35	0.421	0.32	0.339	0.373	0.958	1.12	1.03	1.04	0.98
NCI-H1395		0.649	0.709		0.735	0.541	0.629	0.617	0.432	0.643	0.795	0.681	0.622	0.746	0.751	0.994	1.05	1.04	0.934	1.05
NCI-H1437	0.626	0.605	0.563	0.586	0.364	1.06	0.903	0.905	0.65	0.41	0.608	0.594	0.555	0.59	0.561	1.28	1.26	1.33	1.21	1.3
NCI-H1650	0.382	0.442	0.593	0.32	0.406		0.532	0.43	0.494	0.411	0.441	0.31	0.434	0.381	0.406	1.12	1.1	0.969	0.885	1.32
NCI-H1651	0.166	0.642	0.569	0.537	0.635	0.682	0.664	0.666	0.449	0.6	0.576	0.579	0.611	0.619	0.594	0.824	0.928	0.812	0.856	1.14
NCI-H1666	0.523	0.595	0.557	0.615	0.569	0.789	0.771	0.651	0.642	0.585	0.751	0.747	0.731	0.73	0.75	0.959	1.26	1.06	0.856	0.911
NCI-H1734	0.497	0.463	0.502	0.441	0.556	0.58	0.633	0.585	0.482	0.491	0.518	0.492	0.524	0.491	0.521	0.854	0.916	0.818	0.838	0.952

Cell Line	relative viability ([1]; first compound 1 µM)	relative viability ([1]; first compound 3.162 µM)	relative viability ([1]; first compound 10 µM)	relative viability ([1]; first compound 31.62 µM)	relative viability ([1]; first compound 100 µM)	relative viability ([2]; first compound 1 µM)	relative viability ([2]; first compound 3.162 µM)	relative viability ([2]; first compound 10 µM)	relative viability ([2]; first compound 31.62 µM)	relative viability ([2]; first compound 100 µM)	relative viability ([3]; first compound 0.005 µM)	relative viability ([3]; first compound 0.01581 µM)	relative viability ([3]; first compound 0.05 µM)	relative viability ([3]; first compound 0.1581 µM)	relative viability ([3]; first compound 0.5 µM)	relative viability ([4]; first compound 0.04 µM)	relative viability ([4]; first compound 0.1265 µM)	relative viability ([4]; first compound 0.4 µM)	relative viability ([4]; first compound 1.265 µM)	relative viability ([4]; first compound 4 µM)
NCI-H1755	0.74	0.632	0.731	0.593	0.729	0.57	0.687	0.675	0.525	0.566	0.759	0.715	0.704	0.726	0.709	0.925	0.923	0.947	0.987	0.935
NCI-H1793	0.442	0.464	0.489	0.323	0.454		0.249	0.201	0.218	0.198	0.595	0.55	0.478	0.413	0.559	0.816	0.726	0.772		0.693
NCI-H1915	0.27	0.254	0.249		0.224	0.567	0.628			0.584	0.249	0.254	0.239	0.267	0.262	1.11	1.08	1.15	1.07	1.17
NCI-H1944	0.406	0.461	0.39	0.337	0.343	0.346	0.362	0.351	0.252	0.293	0.47	0.428	0.452	0.397	0.455	0.876	0.924	0.866	0.951	0.865
NCI-H1975	0.663	0.339	0.306	0.311	0.279	0.731	0.583	0.319	0.309	0.276	0.411	0.407	0.389	0.388	0.395	0.982	0.995	0.995	0.865	1.04
NCI-H1993	0.514	0.494	0.609	0.467	0.505	0.509	0.537	0.571	0.65	0.59	0.709	0.634	0.609	0.631	0.668	0.82	0.76	0.833	0.764	0.829
NCI-H2009	0.361	0.349	0.404	0.344	0.409	0.601	0.663	0.62	0.431	0.456	0.408	0.339	0.409	0.364	0.346	1.29	1.26	1.25	1.24	1.24
NCI-H2023	0.237	0.211	0.23	0.201	0.242	0.305	0.3	0.204		0.213	0.209	0.243	0.238	0.219	0.226	0.824	1.09	0.936	0.731	0.686
NCI-H2085	0.523	0.419	0.473	0.473	0.503		0.781	0.473	0.505	0.398	0.578	0.54	0.614	0.551	0.561	1.08	1.11	0.915	1.01	0.889
NCI-H2087	0.252	0.291	0.262	0.203	0.267	0.417	0.499	0.483		0.605	0.289	0.254	0.22	0.186	0.293	1.08	1.32	1.14	1.21	0.937
NCI-H2126	0.518	0.594	0.576	0.49	0.548		0.671	0.594	0.658	0.563	0.617	0.595	0.571	0.583	0.562	1.25	1.43	1.37	1.13	1.23
NCI-H2170	0.48	0.453	0.476	0.427	0.453	0.729	0.673	0.7	0.556	0.558	0.483	0.439	0.411	0.48	0.488	0.971	1.16	1.02	1.03	0.993
NCI-H2342	0.685	0.779	0.744	0.64	0.678	0.517	0.667	0.551	0.604	0.573	0.717	0.68	0.769	0.658	0.794	1.04	1.12	1.09	1.06	1.13
NCI-H2347	0.576	0.685	0.603	0.65	0.698	0.467	0.467	0.431	0.328	0.367	0.699	0.543	0.585	0.578	0.686	0.831	0.847	0.891	0.834	0.763
NCI-H2405		0.678	0.708	0.592	0.668	0.494	0.639	0.583	0.58	0.579	0.767	0.718	0.777	0.707	0.811	1.05	1.02	1.03	1.12	1.04
NCI-H3122	0.529	0.443	0.539	0.364	0.468	1	1.26	1.01		0.786	0.42	0.445	0.448	0.451	0.51		1.06	0.972	0.943	0.948
